Laboratory results: ChEMBL document CHEMBL3217733, “Synthesis of precursors and macrocycle analogs of aerucyclamides as anti-trypanosomal agents” (Medchemcomm, 2012)

How the values were obtained:
[1] = test system: Trypanosoma brucei brucei; assay: Antitrypanosomal activity against Trypanosoma brucei brucei strain 427 assessed as growth inhibition at 25 uM; assay type: functional; conditions: read-out: GI
[2] = test system: Trypanosoma brucei brucei; assay: Antitrypanosomal activity against infective form of Trypanosoma brucei brucei strain 427 assessed as growth inhibition; assay type: functional, organism-based
J774 = assay: Cytotoxicity against […] mouse J774 cells after 24 hrs by WST1 assay; assay type: cell-based; conditions: J774, 24 h
[3] = Selectivity index, ratio of EC50 for mouse J774 cells to EC50 for infective form of Trypanosoma brucei brucei strain 427; assay type: toxicity, cell-based; conditions: read-out: Ratio EC50

| EC50 [2] | Compound | inhibition of growth at 25 µM [1] | EC50 (J774) | selectivity ratio [3] |
| --- | --- | --- | --- | --- |
|  | CC[C@H](C)[C@@H]1NC(=O)c2coc(n2)[C@H]([C@@H](C)CC)NC(=O)c2coc(n2)[C@H]([C@@H](C)CC)NC(=O)c2coc1n2 | 13.5% |  |  |
|  | CC[C@H](C)[C@H](NC(=O)c1csc(CNC(=O)OC(C)(C)C)n1)c1nc(C(=O)OC)co1 | 8.1% |  |  |
|  | CCOC(=O)c1csc(CNC(=O)OC(C)(C)C)n1 | 26.4% |  |  |
|  | CC[C@H](C)[C@H](NC(=O)c1csc([C@@H](NC(=O)c2csc(CNC(=O)OC(C)(C)C)n2)[C@@H](C)CC)n1)c1nc(C(=O)OC)co1 | 20.9% |  |  |
| 0.4 µM | CN(C)c1ccc2nc3ccc(=[N+](C)C)cc-3sc2c1 [METHYLENE BLUE CATION] |  |  |  |
|  | CC[C@H](C)[C@H](NC(=O)c1csc([C@@H](NC(=O)OC(C)(C)C)[C@@H](C)CC)n1)c1nc(C(=O)OC)co1 | 41.1% |  |  |
|  | CC[C@H](C)[C@@H]1NC(=O)c2coc(n2)[C@H]([C@@H](C)CC)NC(=O)c2csc(n2)CNC(=O)c2coc1n2 | 16.2% |  |  |
| 11.4 µM | CC[C@H](C)[C@@H]1NC(=O)c2csc(n2)[C@H]([C@@H](C)CC)NC(=O)c2csc(n2)CNC(=O)c2coc1n2 | 100% | 48.8 µM | 4.3 |
|  | CC[C@H](C)[C@H](NC(=O)c1csc(CNC(=O)OC(C)(C)C)n1)c1nc(C(=O)N[C@H](c2nc(C(=O)OC)co2)[C@@H](C)CC)co1 | 18.3% |  |  |
| 6 µM | CC[C@H](C)[C@H](NC(=O)c1csc([C@@H](NC(=O)c2csc(CNC(=O)OC(C)(C)C)n2)[C@@H](C)CC)n1)c1nc(C(=O)OC)c(C)o1 | 79.1% | 915 µM | 150 |
|  | CC[C@H](C)[C@@H]1NC(=O)c2csc(n2)[C@H]([C@@H](C)CC)NC(=O)c2csc(n2)CNC(=O)c2nc1oc2C [MACROCYCLE] | 41.7% |  |  |
|  | CC[C@H](C)[C@H](NC(=O)c1csc(CNC(=O)OC(C)(C)C)n1)c1nc(C(=O)OC)cs1 | 11.5% |  |  |
